In brackets after ≈: the same amount, converted by molar mass.

One data set can be described thus: physchem. The following applies: 1% DMSO : 99% PBS buffer solution.
Data set [1] is described as follows: Apparent permeability across basolateral to apical membrane in human Caco2 cells at 10 uM measured after 2 hrs by UPLC-MS/MS analysis. As to conditions: caco-2, 2 h. For orientation: Caco-2 cells form a polarised layer with tight junctions and transporters.
A short description of data set [2]: Apparent permeability across apical to basolateral membrane in human Caco2 cells at 10 uM measured after 2 hrs by UPLC-MS/MS analysis. The following applies: caco-2, 2 h.
The target of data set [3] is T1, Bifunctional epoxide hydrolase 2 (Homo sapiens, UniProt P34913).
T1 sequence (P34913 whole entry): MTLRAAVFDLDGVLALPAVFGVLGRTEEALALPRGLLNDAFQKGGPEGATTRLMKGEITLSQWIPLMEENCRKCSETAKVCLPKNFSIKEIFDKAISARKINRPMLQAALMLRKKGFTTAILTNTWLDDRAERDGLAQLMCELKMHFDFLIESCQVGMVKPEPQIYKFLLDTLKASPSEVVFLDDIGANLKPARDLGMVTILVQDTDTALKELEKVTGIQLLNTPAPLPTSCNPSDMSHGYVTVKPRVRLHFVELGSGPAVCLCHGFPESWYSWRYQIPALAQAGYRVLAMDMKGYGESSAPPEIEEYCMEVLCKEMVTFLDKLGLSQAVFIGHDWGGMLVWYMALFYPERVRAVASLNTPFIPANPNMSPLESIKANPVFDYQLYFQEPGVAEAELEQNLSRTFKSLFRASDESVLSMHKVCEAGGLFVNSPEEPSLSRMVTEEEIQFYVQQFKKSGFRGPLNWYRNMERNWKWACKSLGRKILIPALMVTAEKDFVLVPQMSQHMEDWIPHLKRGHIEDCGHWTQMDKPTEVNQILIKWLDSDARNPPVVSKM
Nature of the data set: Inhibition of recombinant human liver soluble epoxide hydrolase expressed in baculovirus infected Sf21 cells using NEPC as substrate by fluorescence based assay. In kind it is cell-based.

Data set [4] can be described thus: Microsomal stability in human microsomes assessed as parent compound remaining in presence of NADP, glucose-6-phosphate and glucose-6-phosphate dehydrogenase measured after 60 mins by UPLC-MS/MS analysis.
The target in data set [5] is T2, Bifunctional epoxide hydrolase 2 (Mus musculus, UniProt P34914).
T2 sequence (P34914 whole entry): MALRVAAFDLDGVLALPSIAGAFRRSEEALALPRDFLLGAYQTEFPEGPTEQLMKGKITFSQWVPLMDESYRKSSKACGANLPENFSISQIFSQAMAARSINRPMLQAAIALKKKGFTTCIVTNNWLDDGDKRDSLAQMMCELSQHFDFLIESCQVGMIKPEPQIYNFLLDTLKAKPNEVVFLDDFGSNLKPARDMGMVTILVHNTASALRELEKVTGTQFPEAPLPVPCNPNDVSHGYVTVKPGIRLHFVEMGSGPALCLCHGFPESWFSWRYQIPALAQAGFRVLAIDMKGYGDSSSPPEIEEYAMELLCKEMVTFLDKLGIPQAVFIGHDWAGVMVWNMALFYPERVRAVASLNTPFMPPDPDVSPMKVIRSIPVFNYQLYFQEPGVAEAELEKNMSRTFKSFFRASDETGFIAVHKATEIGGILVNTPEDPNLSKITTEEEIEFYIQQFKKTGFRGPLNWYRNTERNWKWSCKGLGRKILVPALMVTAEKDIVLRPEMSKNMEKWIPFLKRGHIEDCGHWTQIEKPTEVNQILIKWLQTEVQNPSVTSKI
Briefly: Inhibition of murine soluble epoxide hydrolase expressed in baculovirus infected Sf21 cells using NEPC as substrate by fluorescence based assay. The data set is classed as cell-based.

A short description of data set [6]: Efflux ratio of apparent permeability across basolateral to apical membrane over apical to basolateral membrane in human Caco2 cells at 10 uM measured after 2 hrs by UPLC-MS/MS analysis. As to conditions: caco-2, 2 h.

In turn, `O=C(Nc1ccc(F)c(F)c1F)NC12CC3CC(CC(C3)C1)C2` registered a solubility (kinetic) at 2 h in “physchem” of 57 µM (≈ 18.5 µg/mL). Further, the results for the Papp in data set [1] and in data set [2] were 0.18 ×10⁻⁶ cm/s and 1.18 ×10⁻⁶ cm/s, respectively.

`CC(=O)N1CCC(NC(=O)NC23CC4CC(CC2C4)C3)CC1`: the IC50 in data set [3] was 21.7 nM. In addition, the remaining at 1 h in data set [4] was determined as 88.7%.

On to `CC12CC3CC1(C)CC3(NC(=O)Nc1ccc(F)c(F)c1F)C2`, for which the solubility (kinetic) at 2 h in the data set “physchem” was 66 µM (≈ 21.4 µg/mL). Also, in data set [3], the IC50 worked out at 0.5 nM. Also, in data set [4], the remaining at 1 h was 30%.

For `CC12CC3CC1(C)CC3(CNC(=O)Nc1ccc(F)c(F)c1F)C2`, in data set [3], the IC50 amounted to 0.4 nM.

As for `CC(=O)N1CCC(NC(=O)NC23CC4(C)CC2CC4(C)C3)CC1`, the solubility (kinetic) at 2 h in “physchem” was > 100 µM. Moreover, the results for the IC50 in data set [3] and in data set [5] were 6.5 nM and 3.3 nM, respectively. Further, the values for the Papp in data set [1] and in data set [2] were 18.02 ×10⁻⁶ cm/s and 15.92 ×10⁻⁶ cm/s, respectively. Besides, the remaining at 1 h in data set [4] was determined as 59.3%. In addition, the Ratio in data set [6] turned out to be 1.1.

For `CC(=O)N1CCC(NC(=O)NC2C3CC4C5CC6CC4C2C(C6)C5C3)CC1` (stereo unspecified), the solubility (kinetic) at 2 h in the data set “physchem” worked out at 86 µM (≈ 32 µg/mL). For the same compound, the IC50 in data set [3] came to 3.4 nM; in data set [5], 5 nM. The Papp in data set [1] was 14.69 ×10⁻⁶ cm/s; in data set [2], 15.62 ×10⁻⁶ cm/s. Besides, the remaining at 1 h in data set [4] was found to be 0%. Besides, the Ratio in data set [6] is recorded as 1.

For `O=C(NC1C2CC3C4CC5CC3C1C(C5)C4C2)N[C@H]1CC[C@H](Oc2ccc(C(=O)O)cc2)CC1` (stereo partly specified), the solubility (kinetic) at 2 h in the data set “physchem” came to 7 µM (≈ 3.25 µg/mL). The IC50 in data set [3] was 0.5 nM. Also, the Papp was 6.75 ×10⁻⁶ cm/s in data set [1] and 0.31 ×10⁻⁶ cm/s in data set [2]. Also, the remaining at 1 h in data set [4] turned out to be 14.6%. For the same compound, the Ratio in data set [6] is recorded as 22.2.

`CC(=O)N1CCC(NC(=O)NC23CC4CC(CC(C4)C2)C3)CC1` [AR9281]: in “physchem”, the solubility (kinetic) at 2 h is > 100 µM.

Regarding `C[C@]12CC[C@H]3[C@@H](CCC4=CC(=O)CC[C@@]43C)[C@@H]1CC[C@@H]2O` [TESTOSTERONE], in data set [4], the remaining at 1 h was found to be 22.4%.

By kinetic solubility is commonly meant solubility judged after dilution from a stock solution rather than from solid. The term Papp denotes a coefficient for how fast a substance crosses the barrier. A word on the IC50: it is the concentration that gives 50% inhibition.

For the origin of these results see ChEMBL document CHEMBL4396961, “Exploring the size of the lipophilic unit of the soluble epoxide hydrolase inhibitors” (Bioorg Med Chem, 2019).
